US8586739B2, “Heterocyclic compounds and their uses” (Amgen Inc., priority 2007, dated 2013)

Test system: human B cells
Assay: Human B cells proliferation stimulated by anti-IgM (3H thymidine)
Assay type: cell-based
Method: Human B Cells Proliferation stimulate by anti-IgM
Isolate PBMCs from Leukopac or from human fresh blood. Isolate human B cells by using Miltenyi protocol and B cell isolation kit II.—human B cells were Purified by using autoMACS® column.
Activation of Human B Cells
Use 96 well Flat bottom plate, plate 50000/well purified B cells in B cell proffer-ation medium (DMEM+5% FCS, 10 mM Hepes, 50 μM 2-mercaptoethanol); 150 μL medium contain 250 ng/mL CD40L-LZ recombinant protein (Amgen) and 2 μg/mL anti-Human IgM antibody (Jackson ImmunoReseach Lab.#109-006-129), mixed with 50 μL B cell medium containing PI3K inhibitors and incubate 72 h at 37° C. incubator. After 72 h, pulse labeling B cells with 0.5-1 uCi/well ^3H thymidine for overnight ˜18 h, and harvest cell using TOM harvester.

[1] = Homo sapiens, B-cell, 72 h, purified human B cells, anti-Human IgM + CD40L-LZ

| Compound | IC50 [1] [nM] | IC50 (Homo sapiens, B-cell, purified human B cells, anti-Human IgM + CD40L-LZ, 72 h) [nM] |
| --- | --- | --- |
| OC1CCCN(c2nc3c(Cl)cccc3cc2CNc2ncnc3[nH]cnc23)C1 (stereo not shown) [1-(8-chloro-3-((9H-purin-6-ylamino)methyl)-2-quinolinyl)-3-piperidinol] | 98.8 |  |
| C[C@H](Nc1ncnc2[nH]cnc12)c1cc2cccc(C#N)c2nc1-c1cccc(F)c1 [2-(3-fluorophenyl)-3-((1S)-1-(9H-purin-6-ylamino)ethyl)-8-quinolinecarbonitrile] | 3.38 |  |
| N#Cc1cccc2cc(CNc3ncnc4[nH]cnc34)c(-c3cccc(F)c3)nc12 [2-(3-fluorophenyl)-3-((9H-purin-6-ylamino)methyl)-8-quinolinecarbonitrile] | 300 |  |
| Oc1ccc(F)cc1-c1nc2c(Cl)cccc2cc1CNc1ncnc2[nH]cnc12 [2-(8-chloro-3-((9H-purin-6-ylamino)methyl)-2-quinolinyl)-4-fluorophenol] | 819 |  |
| N#Cc1ccccc1-c1nc2c(Cl)cccc2cc1CNc1ncnc2[nH]cnc12 [2-(8-chloro-3-((9H-purin-6-ylamino)methyl)-2-quinolinyl)benzonitrile] | 55.1 |  |
| C[C@H](Nc1ncnc2[nH]cnc12)c1cc2cccc(Cl)c2nc1-c1cnccc1C(N)=O [3-(8-chloro-3-((1S)-1-(9H-purin-6-ylamino)ethyl)-2-quinolinyl)-4-pyridinecarboxamide] | 4640 |  |
| C[C@H](Nc1ncnc2[nH]cnc12)c1cc2cccc(C#N)c2nc1-c1ccccn1 [3-((1S)-1-(9H-purin-6-ylamino)ethyl)-2-(2-pyridinyl)-8-quinolinecarbonitrile] | 46.7 |  |
| Clc1cccc2cc(COc3ncnc4[nH]cnc34)c(-c3ccccc3)nc12 [8-chloro-2-phenyl-3((9H-purin-6-yloxy)methyl)quinoline] | 81.4 |  |
| C[C@H](Oc1ncnc2[nH]ccc12)c1cc2cccc(Cl)c2nc1-c1ccccc1 [8-chloro-2-phenyl-3-((1S)-1-(7H-pyrrolo[2,3-d]pyrimidin-4-yloxy)ethyl)quinoline] | 3.04 |  |
| OCC[C@H](Nc1ncnc2[nH]cnc12)c1cc2cccc(Cl)c2nc1-c1ccccc1Cl [(3S)-3-(8-chloro-2-(2-chlorophenyl)-3-quinolinyl)-3-(9H-purin-6-ylamino)-1-propanol] | 13.1 |  |
| C[C@H](Nc1ncnc2[nH]cnc12)c1cc2cccc(F)c2nc1-c1ccccc1 [(S)—N-(1-(8-fluoro-2-phenylquinolin-3-yl)ethyl)-9H-purin-6-amine] | 1.42 |  |
| Nc1nc(NCc2cc3cccc(Cl)c3nc2-c2ccccc2Cl)c2nc[nH]c2n1 [N6-((8-chloro-2-(2-chlorophenyl)-3-quinolinyl)methyl)-9H-purine-2,6-diamine] | 8.9 |  |
| C[C@@H](Nc1ncnc2[nH]cnc12)c1nc2cccc(C(F)(F)F)c2nc1-c1ccccc1Cl [N-((1R)-1-(3-(2-chlorophenyl)-5-(trifluoromethyl)-2-quinoxalinyl)ethyl)-9H-purin-6-amine] | 53.4 |  |
| C[C@@H](Nc1ncnc2[nH]cnc12)c1nc2cccc(Cl)c2cc1-c1cccc(F)c1 [N-((1R)-1-(5-chloro-3-(3-fluorophenyl)-2-quinolinyl)ethyl)-9H-purin-6-amine] | 21 |  |
| C[C@@H](Nc1ncnc2[nH]cnc12)c1cc2cccc(Cl)c2nc1-c1nccs1 [N-((1R)-1-(8-chloro-2-(1,3-thiazol-2-yl)-3-quinolinyl)ethyl)-9H-purin-6-amine] | 182 |  |
| C[C@H](Nc1ncnc2[nH]cnc12)c1cc2cccc(-c3cccc(F)c3)c2nc1-c1cccc(F)c1 [N-((1S)-1-(2,8-bis(3-fluorophenyl)-3-quinolinyl)ethyl)-9H-purin-6-amine] | 1.06 |  |
| C[C@H](Nc1ncnc2[nH]cnc12)c1cc2cccc(-c3ccccn3)c2nc1-c1ccccn1 [N-((1S)-1-(2,8-di-2-pyridinyl-3-quinolinyl)ethyl)-9H-purin-6-amine] | 67.4 |  |
| C[C@H](Nc1ncnc2[nH]cnc12)c1cc2cccc(-c3ccccc3)c2nc1-c1ccccc1 [N-((1S)-1-(2,8-diphenyl-3-quinolinyl)ethyl)-9H-purin-6-amine] | 18.8 |  |
| C[C@H](Nc1ncnc2nc[nH]c12)c1cc2cccc(F)c2nc1-c1cc(F)ccc1F [N-((1S)-1-(2-(2,5-difluorophenyl)-8-fluoro-3-quinolinyl)ethyl)-7H-purin-6-amine] | 12.7 |  |
| C[C@H](Nc1ncnc2[nH]cnc12)c1cc2cccc(Cl)c2nc1-c1cc(F)ccc1OCc1ccccc1 [N-((1S)-1-(2-(2-(benzyloxy)-5-fluorophenyl)-8-chloro-3-quinolinyl)ethyl)-9H-purin-6-amine] | 16.8 |  |
| C[C@H](Nc1ncnc2[nH]cnc12)c1cc2ccc(F)cc2nc1-c1cc(F)ccc1Cl [N-((1S)-1-(2-(2-chloro-5-fluorophenyl)-7-fluoro-3-quinolinyl)ethyl)-9H-purin-6-amine] | 20 |  |

| Compound | IC50 [1] [nM] | IC50 (Homo sapiens, B-cell, purified human B cells, anti-Human IgM + CD40L-LZ, 72 h) [nM] |
| --- | --- | --- |
| C[C@H](Nc1ncnc2nc[nH]c12)c1cc2cccc(F)c2nc1-c1cc(F)ccc1Cl [N-((1S)-1-(2-(2-chloro-5-fluorophenyl)-8-fluoro-3-quinolinyl)ethyl)-7H-purin-6-amine] | 33.7 |  |
| C[C@H](Nc1ncnc2[nH]cnc12)c1cc2ccc(F)cc2nc1-c1ccccc1Cl [N-((1S)-1-(2-(2-chlorophenyl)-7-fluoro-3-quinolinyl)ethyl)-9H-purin-6-amine] | 29 | 29 |
| C[C@H](Nc1ncnc2nc[nH]c12)c1cc2cccc(F)c2nc1-c1ccccc1Cl [N-((1S)-1-(2-(2-chlorophenyl)-8-fluoro-3-quinolinyl)ethyl)-7H-purin-6-amine] | 11.4 |  |
| C[C@H](Nc1ncnc2[nH]cnc12)c1cc2ccccc2nc1-c1ccccn1 [N-((1S)-1-(2-(2-pyridinyl)-3-quinolinyl)ethyl)-9H-purin-6-amine] | 5.6 |  |
| C[C@H](Nc1ncnc2[nH]cnc12)c1cc2ccc(F)cc2nc1-c1cc(F)cc(F)c1 [N-((1S)-1-(2-(3,5-difluorophenyl)-7-fluoro-3-quinolinyl)ethyl)-9H-purin-6-amine] | 5.15 |  |
| C[C@H](Nc1ncnc2nc[nH]c12)c1cc2cccc(F)c2nc1-c1cc(F)cc(F)c1 [N-((1S)-1-(2-(3,5-difluorophenyl)-8-fluoro-3-quinolinyl)ethyl)-7H-purin-6-amine] | 7.07 |  |
| C[C@H](Nc1ncnc2nc[nH]c12)c1cc2cccc(F)c2nc1-c1cc(F)cc(Cl)c1 [N-((1S)-1-(2-(3-chloro-5-fluorophenyl)-8-fluoro-3-quinolinyl)ethyl)-7H-purin-6-amine] | 8.09 |  |
| C[C@H](Nc1ncnc2[nH]cnc12)c1nc2cccc(C(F)(F)F)c2nc1-c1ccccc1Cl [N-((1S)-1-(3-(2-chlorophenyl)-5-(trifluoromethyl)-2-quinoxalinyl)ethyl)-9H-purin-6-amine] | 10.4 |  |
| C[C@H](Nc1ncnc2[nH]cnc12)c1nc2cccc(Cl)c2nc1-c1cc(F)ccc1Cl [N-((1S)-1-(5-chloro-3-(2-chloro-5-fluorophenyl)-2-quinoxalinyl)ethyl)-9H-purin-6-amine] | 89.3 |  |
| C[C@H](Nc1ncnc2[nH]cnc12)c1nc2cccc(Cl)c2cc1-c1cccc(F)c1 [N-((1S)-1-(5-chloro-3-(3-fluorophenyl)-2-quinolinyl)ethyl)-9H-purin-6-amine] | 8.78 |  |
| C[C@H](Nc1ncnc2[nH]cnc12)c1cc2ccc(F)cc2[n+]([O-])c1-c1ccccc1 [N-((1S)-1-(7-fluoro-1-oxido-2-phenyl-3-quinolinyl)ethyl)-9H-purin-6-amine] | 4.64 |  |
| C[C@H](Nc1ncnc2[nH]cnc12)c1cc2ccc(F)cc2nc1-c1ccccc1S(C)(=O)=O [N-((1S)-1-(7-fluoro-2-(2-(methylsulfonyl)phenyl)-3-quinolinyl)ethyl)-9H-purin-6-amine] | 6.82 |  |
| C[C@H](Nc1ncnc2[nH]cnc12)c1cc2ccc(F)cc2nc1-c1cccc(S(C)(=O)=O)c1 [N-((1S)-1-(7-fluoro-2-(3-(methylsulfonyl)phenyl)-3-quinolinyl)ethyl)-9H-purin-6-amine] | 148 |  |
| C[C@H](Nc1ncnc2[nH]cnc12)c1cc2ccc(F)cc2nc1-c1cccc(F)c1 [N-((1S)-1-(7-fluoro-2-(3-fluorophenyl)-3-quinolinyl)ethyl)-9H-purin-6-amine] | 11.5 |  |
| C[C@H](Nc1ncnc2[nH]cnc12)c1cc2ccc(F)cc2nc1-c1cccnc1 [N-((1S)-1-(7-fluoro-2-(3-pyridinyl)-3-quinolinyl)ethyl)-9H-purin-6-amine] | 12.2 |  |
| C[C@H](Nc1ncnc2[nH]cnc12)c1cc2ccc(F)cc2nc1-c1cccc(F)n1 [N-((1S)-1-(7-fluoro-2-(6-fluoro-2-pyridinyl)-3-quinolinyl)ethyl)-9H-purin-6-amine] | 3.72 |  |
| C[C@H](Nc1ncnc2[nH]cnc12)c1cc2ccc(F)cc2nc1-c1ccccc1 [N-((1S)-1-(7-fluoro-2-phenyl-3-quinolinyl)ethyl)-9H-purin-6-amine] | 5.11 |  |
| C[C@H](Nc1ncnc2[nH]cnc12)c1cc2cccc(Cl)c2nc1-c1nccs1 [N-((1S)-1-(8-chloro-2-(1,3-thiazol-2-yl)-3-quinolinyl)ethyl)-9H-purin-6-amine] | 1.64 |  |
| C[C@H](Nc1ncnc2[nH]cnc12)c1cc2cccc(Cl)c2nc1-c1cscn1 [N-((1S)-1-(8-chloro-2-(1,3-thiazol-4-yl)-3-quinolinyl)ethyl)-9H-purin-6-amine] | 0.537 |  |
| C[C@H](Nc1ncnc2[nH]cnc12)c1cc2cccc(Cl)c2nc1-c1ccc(F)cc1F [N-((1S)-1-(8-chloro-2-(2,4-difluorophenyl)-3-quinolinyl)ethyl)-9H-purin-6-amine] | 14 |  |
| C[C@H](Nc1ncnc2[nH]cnc12)c1cc2cccc(Cl)c2nc1-c1cc(F)ccc1Cl [N-((1S)-1-(8-chloro-2-(2-chloro-5-fluorophenyl)-3-quinolinyl)ethyl)-9H-purin-6-amine] | 46.6 |  |
